Measurements published in the CheMixHub viscosity set.
Several values for one entry are separate records, joined by “and”; a condition that tells them apart may be missing. Identical values can stand only once.

Experiment: xn = mol fraction of the nth substance listed

CC(Cl)(Cl)Cl + c1ccccc1
303.15 K, 101 kPa
Settings	viscosity [mPa·s]
x1 = 0.1318	0.5946
x1 = 0.2306	0.614
x1 = 0.3381	0.6341
x1 = 0.4104	0.6461
x1 = 0.4894	0.6588
x1 = 0.5844	0.6709
x1 = 0.6716	0.6831
x1 = 0.7484	0.6926
x1 = 0.8648	0.706
x1 = 0.9221	0.7138

[Cl-].[Cl-].[Cl-].[La+3] + O
viscosity [mPa·s]
Settings	293.15 K	298.15 K	303.15 K	308.15 K	318.15 K
100 kPa, x1 = 0.000538	1.026	0.9124	0.8179	0.7374	–
100 kPa, x1 = 0.000907	1.037	0.922	0.8265	0.7452	–
100 kPa, x1 = 0.001802	–	0.9485	0.8506	0.7674	–
100 kPa, x1 = 0.003595	1.12	0.9971	0.8947	0.8106	–
100 kPa, x1 = 0.005372	–	–	0.9462	0.857	–
100 kPa, x1 = 0.007147	–	–	–	0.9116	–
100 kPa, x1 = 0.008936	–	–	1.076	0.9725	–
100 kPa, x1 = 0.0107	–	–	–	1.041	–
101 kPa, x1 = 0.008899	–	–	1.075	–	–
101.3 kPa, x1 = 0.0009	1.037	0.9217	0.8261	0.7453	0.618
101.3 kPa, x1 = 0.0018	–	–	–	0.7687	0.6382
101.3 kPa, x1 = 0.00893	–	–	1.076	0.9735	0.8112
101.3 kPa, x1 = 0.0177	1.818	1.623	1.46	1.322	1.102
101.3 kPa, x1 = 0.02631	2.522	2.246	2.016	1.824	1.516
101.3 kPa, x1 = 0.03478	3.611	3.199	2.857	2.573	2.12
101.3 kPa, x1 = 0.0431	5.287	4.642	4.114	3.678	2.992
101.3 kPa, x1 = 0.05127	7.977	6.922	6.069	5.371	4.29

CC(Cl)(Cl)Cl + COCC(C)O
298.15 K, 101.33 kPa
Settings	viscosity [mPa·s]
x1 = 0.101	1.508
x1 = 0.2	1.362
x1 = 0.3	1.232
x1 = 0.4	1.119
x1 = 0.501	1.021
x1 = 0.601	0.9385
x1 = 0.7	0.8715
x1 = 0.72	0.8596
x1 = 0.837	0.8044
x1 = 0.908	0.785

CC(Cl)(Cl)Cl + CC(=O)CC(C)C
298.15 K, 101.33 kPa
Settings	viscosity [mPa·s]
x2 = 0.0803	0.739
x2 = 0.1769	0.694
x2 = 0.2653	0.665
x2 = 0.3765	0.634
x2 = 0.4692	0.614
x2 = 0.5907	0.594
x2 = 0.7245	0.573
x2 = 0.8536	0.558

CC(Cl)(Cl)Cl + CCCCCC
303.15 K, 101 kPa
Settings	viscosity [mPa·s]
x1 = 0.1033	0.3166
x1 = 0.2726	0.3777
x1 = 0.3375	0.4016
x1 = 0.4011	0.4253
x1 = 0.5547	0.4864
x1 = 0.5981	0.5047
x1 = 0.6578	0.5318
x1 = 0.7595	0.582
x1 = 0.8388	0.6246
x1 = 0.9378	0.6833

CC(Cl)(Cl)Cl + CCCCCOC(C)=O
303.15 K, 101.3 kPa
Settings	viscosity [mPa·s]
x2 = 0.104	0.7366
x2 = 0.1989	0.7441
x2 = 0.2995	0.7518
x2 = 0.4018	0.7568
x2 = 0.5014	0.7653
x2 = 0.5996	0.7667
x2 = 0.6961	0.7663
x2 = 0.7935	0.7658
x2 = 0.8993	0.7589

CCCCCBr + Cc1ccc(C)cc1
308.15 K, 101 kPa
Settings	viscosity [mPa·s]
x2 = 0.1026	0.6316
x2 = 0.1991	0.6138
x2 = 0.304	0.5958
x2 = 0.4033	0.5803
x2 = 0.503	0.5655
x2 = 0.6052	0.5526
x2 = 0.7021	0.5436
x2 = 0.8	0.5318
x2 = 0.9034	0.5238

CC(Cl)(Cl)Cl + CCCCCCC
303.15 K, 101 kPa
Settings	viscosity [mPa·s]
x1 = 0.138	0.3932
x1 = 0.2468	0.4161
x1 = 0.355	0.442
x1 = 0.4494	0.4689
x1 = 0.5571	0.5061
x1 = 0.6233	0.5327
x1 = 0.7095	0.5716
x1 = 0.7857	0.6088
x1 = 0.8262	0.63
x1 = 0.9288	0.6849

CC(Cl)(Cl)Cl + C1COCCO1
101.33 kPa
Settings	viscosity
298.15 K, x1 = 0.102	1.141 mPa·s
298.15 K, x1 = 0.201	1.097 mPa·s
298.15 K, x1 = 0.3	1.057 mPa·s
298.15 K, x1 = 0.4	1.016 mPa·s
298.15 K, x1 = 0.5	0.9762 mPa·s and 0.9767 mPa·s
298.15 K, x1 = 0.599	0.938 mPa·s
298.15 K, x1 = 0.7	0.9003 mPa·s
298.15 K, x1 = 0.8	0.8635 mPa·s
298.15 K, x1 = 0.862	0.8404 mPa·s
303.15 K, x2 = 0.0725	0.7541 mPa·s
303.15 K, x2 = 0.1135	0.771 mPa·s
303.15 K, x2 = 0.2041	0.8089 mPa·s
303.15 K, x2 = 0.336	0.8625 mPa·s
303.15 K, x2 = 0.4193	0.8943 mPa·s
303.15 K, x2 = 0.5168	0.9291 mPa·s
303.15 K, x2 = 0.6428	0.97 mPa·s
303.15 K, x2 = 0.7459	1.002 mPa·s
303.15 K, x2 = 0.8153	1.023 mPa·s
303.15 K, x2 = 0.9277	1.059 mPa·s

O=CO + O=[N+]([O-])c1ccccc1
viscosity [mPa·s], 101 kPa
Settings	x1 = 0.1791	x1 = 0.2956	x1 = 0.4132	x1 = 0.5229	x1 = 0.6396	x1 = 0.7402	x1 = 0.8361
298.15 K	1.676	1.636	1.604	1.591	1.593	1.592	1.576
323.15 K	1.114	1.084	1.054	1.043	1.025	1.029	1.005

CC(Cl)(Cl)Cl + C[N+](=O)[O-]
298.15 K, 101.33 kPa
Settings	viscosity [mPa·s]
x1 = 0.101	0.6114
x1 = 0.201	0.6128
x1 = 0.251	0.6165
x1 = 0.301	0.622
x1 = 0.351	0.6284
x1 = 0.4	0.6356
x1 = 0.451	0.6435
x1 = 0.5	0.6518
x1 = 0.55	0.6607
x1 = 0.551	0.6609
x1 = 0.6	0.6702
x1 = 0.65	0.6803
x1 = 0.651	0.6805
x1 = 0.7	0.6912
x1 = 0.749	0.703
x1 = 0.812	0.7202
x1 = 0.867	0.7375

O=CO + C1CCOC1
298.15 K, 101 kPa
Settings	viscosity [mPa·s]
x2 = 0.0662	1.443
x2 = 0.1376	1.396
x2 = 0.2148	1.328
x2 = 0.2985	1.233
x2 = 0.3896	1.114
x2 = 0.4891	0.9824
x2 = 0.5983	0.8395
x2 = 0.7186	0.6886
x2 = 0.8517	0.5576

COC(=O)c1ccccc1C(=O)OC + C1CCOC1
viscosity [mPa·s], 101 kPa
Settings	x1 = 0.1001	x1 = 0.2019	x1 = 0.2966	x1 = 0.3989	x1 = 0.5009	x1 = 0.5992	x1 = 0.7006	x1 = 0.8013	x1 = 0.9004
293.15 K	0.7426	1.073	1.505	2.155	3.107	4.313	6.121	8.638	12.37
298.15 K	0.7028	0.9986	1.383	1.947	2.756	3.756	5.214	7.181	9.998
303.15 K	0.666	0.9314	1.276	1.769	2.463	3.303	4.496	6.063	8.238
308.15 K	0.6197	0.8698	1.181	1.616	2.217	2.93	3.92	5.189	6.906
313.15 K	0.6531	0.8136	1.097	1.483	2.007	2.619	3.45	4.494	5.87
318.15 K	0.557	0.7619	1.021	1.365	1.828	2.357	3.063	3.933	5.056
323.15 K	0.4957	0.7137	0.9522	1.261	1.674	2.136	2.739	3.474	4.404

O=C(O)CC(O)(CC(=O)O)C(=O)O + CC(O)CO
101.3 kPa, x1 = 0.333
Settings	viscosity [mPa·s]
298 K	2188
323 K	571

O=[N+]([O-])[O-].O=[N+]([O-])[O-].[Ba+2] + N
293.15 K, 101 kPa
Settings	viscosity [mPa·s]
x1 = 0.06	0.171
x1 = 0.13	0.24
x1 = 0.28	0.366
x1 = 0.58	0.81

O=CO + CC(C)=O
viscosity [mPa·s], 101 kPa
Settings	x1 = 0.1014	x1 = 0.2068	x1 = 0.299	x1 = 0.4009	x1 = 0.4945	x1 = 0.6083	x1 = 0.6998	x1 = 0.8014	x1 = 0.8947
298.15 K	0.3575	0.4002	0.4482	0.5192	0.5972	0.7312	0.8622	1.053	1.287
308.15 K	0.3251	0.3639	0.4063	0.4659	0.5315	0.642	0.7455	0.906	1.079
318.15 K	0.2954	0.3287	0.3657	0.4163	0.4726	0.5609	0.6457	0.7719	0.9139

CC(Cl)(Cl)Cl + CC1CCCCC1
303.15 K, 101 kPa
Settings	viscosity [mPa·s]
x1 = 0.1468	0.6328
x1 = 0.2138	0.629
x1 = 0.31	0.6248
x1 = 0.4182	0.6239
x1 = 0.5255	0.6301
x1 = 0.5982	0.6379
x1 = 0.69	0.6518
x1 = 0.759	0.6659
x1 = 0.8273	0.6809
x1 = 0.9075	0.7009

O=S(=O)([O-])NC1CCCCC1.[Cs+] + O
viscosity [mPa·s], 101 kPa
Settings	x1 = 0.0009023	x1 = 0.001363	x1 = 0.001814	x1 = 0.002253	x1 = 0.002731	x1 = 0.00317	x1 = 0.003611	x1 = 0.004062
293.15 K	1.024	1.036	1.047	1.058	1.071	1.082	1.093	1.105
298.15 K	0.91	0.9199	0.9302	0.9399	0.951	0.9605	0.9704	0.9807
303.15 K	0.8151	0.8242	0.8329	0.8415	0.8512	0.8595	0.8685	0.8771
313.15 K	0.6672	0.6742	0.6815	0.6879	0.6959	0.7025	0.7097	0.7163
323.15 K	0.5584	0.5642	0.5696	0.5753	0.5813	0.5866	0.5921	0.5977
